Test results: patent US7985771B2, “Furanone derivatives” (Monsanto Technology LLC, priority 2002, dated 2011)

Key:
[1] = test system: IL-1beta release from a mouse microglial cell line; assay: Interleukin-1 beta microglial cell assay; assay type: cell-based; conditions: LPS and IFN gamma stimulation, 24 hours, read-out: inhibition of IL-1beta induction, EC50
Procedure: This assay measures the release of IL-1β from a mouse microglial cell line following an inflammatory challenge with LPS and interferon-gamma. The ability of test articles to inhibit microglial cell activation and IL-1beta release is determined by co-incubation of the test article with the inflammatory challenge. Cytokine release is measured using a mouse IL-1β ELISA and cell toxicity is determined using Cell Tracker Green (a fluorescent dye that measures cell viability).
Mouse microglial cells were seeded in poly-D-lysine coated 96-well plates at a density of 10,000 cells/well and allowed to attach for 24 hours. Cells were stimulated by addition of LPS (10 μg/ml) and IFN gamma (10 ng/ml) in the presence or absence of test article. The cells were then incubated for 24 hours at 37° C., after which time the media was removed and used for cytokine determination as described below.
Viability of mouse microglial cells after exposure to the test article was determined using a fluorescent viability dye, Cell Tracker Green. Cell Tracker Green was used at a working concentration of 5 μM in 1× HBSS. Cells were washed once with HBSS (200 μl/well) and 100 μl Cell Tracker Green was added to each well. Cells were then incubated at 37° C. for 30 minutes, after which time the Cell Tracker was removed and the cells were washed once with HBSS (200 μl/well). 100 μl fresh HBSS was added to each well and the plate was read on a Fluoroskan plate reader using an excitation wavelength of 485 nm and an emission wavelength of 538 nm.
1. The IL-1β capture antibody was reconstituted in 1 ml of PBS to give a final concentration of 720 μg/ml, and the working concentration was 4 μg/ml. For coating one 96-well plate (at 100 μl/well) 56 μl of the 720 μg/ml stock was diluted into 10 ml of PBS. 2. The IL-1β standards were reconstituted in 0.5 ml of Reagent Diluent (70 ng/ml). For a high standard of 1 ng/ml (2 wells at 100 μl each+enough for series dilution) 7.1 μl of the 70 ng/ml standard were diluted into 0.5 ml of Reagent Diluent 3. The IL-1β detection antibody was reconstituted in 1 ml of Reagent Diluent to give a final concentration of 18 μg/ml and the working concentration is 100 ng/ml. For one 96-well plate (at 100 μl/well) 56 μl of the 18 μg/ml stock was diluted into 10 ml of Reagent Diluent.
1. The Costar EIA Hi-binding plate was coated with capture antibody at 4 μg/ml. Each well was coated with 100 μl, and the plate was sealed and incubated overnight at room temperature.
2. Each well was aspirated and washed 3× with Wash Buffer. Each well was filled to the top, dispensed, and any remaining buffer was removed by inverting the plate and gently blotting against clean paper towels.
3. Non-specific binding sites were blocked by adding 300 μl of Blocking Buffer to each well, and after sealing incubating for at least 1 hour at room temperature.
5. 100 μl of either standard or sample were added in each well of the capture-coated and pre-blocked plate. The plate was sealed and incubated for 2 hours at room temperature, followed with washing as in step 2.
6. 100 μl of the detection antibody ([…]) were added to each well.
7. The plate was sealed and incubated at room temperature for 2 hours, followed with washing as in step 2.
8. 100 μl of the working dilution of Streptavidin-HRP was added, and the plate was sealed and incubated in the dark for 20 minutes at room temperature, followed with washing as in Step 2.
9. The fresh Substrate Solution was prepared by mixing Color Reagent A (H2O2) and Color Reagent B (Tetramethylbenzidine) in a 1:1 ratio. 100 μl of this Substrate Solution mixture was added to each well and the plate was incubated in the dark for 20 minutes at room temperature. 10. 50 μl of Stop Solution was added to each well, mixing was ensured by gently tapping. 11. Each plate was read with the Spectramax once at 450 nm. Results

[2] = test system: ELAM (E-selectin) expression in endothelial cells; assay: E-selectin (ELAM) cell inflammation assay; assay type: cell-based; conditions: LPS and IL-1β stimulation, read-out: reduction of expression of ELAM, EC50
Procedure: Endothelial-Leukocyte Adhesion Molecule (ELAM), also known as E-selectin, is expressed on the surface of endothelial cells. In this assay, lipopolysaccharide (LPS) and IL-1β are used to stimulate the expression of ELAM; test agents are tested for their abilities to reduce this expression, in accordance with studies showing that reduction of leukocyte adhesion to endothelial cell surface is associated with decreased cellular damage (e.g., Takada, M., Et al., Transplantation 64: 1520-25, 1997; Steinberg, J. B., et al., J. Heart Lung Trans. 13:306-313, 1994).
Endothelial cells may be selected from any of a number of sources and cultured according to methods known in the art; including, for example, coronary artery endothelial cells, human brain microvascular endothelial cells (HBMEC; Hess, D.C., et al., Neurosci. Left. 213(1): 37-40, 1996), or lung endothelial cells. Cells are conveniently cultured in 96-well plates. Cells are stimulated by adding a solution to each well containing 10 μg/ml LPS and 100 pg/ml IL-1β for 6 hours in the presence of test agent (specific concentrations and time may be adjusted depending on the cell type). Treatment buffer is removed and replaced with pre-warmed Fixing Solution® (100 μl/well) for 25 minutes at room temperature. Cells are then washed 3×, then incubated with Blocking Buffer (PBS+2% FBS) for 25 minutes at room temperature. Blocking Buffer containing Monoclonal E-Selectin Antibody (1:750, Sigma Catalog #S-9555) is added to each well. Plates are sealed and stored at 4° overnight. Plates are washed 4× with 160 μL Blocking Buffer per well. Second Antibody-HRP diluted 1:5000 in Blocking Buffer is then added (100 μL/well), and plates are incubated at room temperature (protected from light) for two hours. Plates are then washed 4× with Blocking Buffer before addition of 100 μL of ABTS Substrate solution at room temperature (Zymed, Catalog #00-2024). Wells are allowed to develop for 35 minutes, before measurement at 402 nm in a Fluoroskan® Reader with shake program for 10 seconds. Positive results are recorded as a decrease in ELAM concentration in tested wells, as compared to control wells.

Row | Compound | EC50 [1] [µM] | EC50 [2] [µM]
1 | CCOC(=O)C1(CSc2nc3ccccc3[nH]2)OC(=O)C(OCC)=C1Sc1nc2ccccc2n1CC (stereo not drawn) [2-(1H-Benzoimidazol-2-ylsulfanylmethyl)-4-ethoxy-3-(1-ethyl-1H-benzoimidazol-2-ylsulfanyl)-5-oxo-2,5-dihydro-furan-2-carboxylic acid ethyl ester] | ≤ 20 | ≤ 30
2 | CCOC(=O)C1(C[S+]([O-])c2nc3ccccc3s2)OC(=O)C(O)=C1Sc1nc2ccccc2s1 (stereo not drawn) [2-(Benzothiazole-2-sulfinylmethyl)-3-(benzothiazol-2-ylsulfanyl)-4-hydroxy-5-oxo-2,5-dihydro-furan-2-carboxylic acid ethyl ester] | ≤ 20 | ≤ 30
3 | CCOC(=O)C1(CSCc2ccc(Cl)cc2Cl)OC(=O)C(O)=C1SCc1ccc(Cl)cc1Cl (stereo not drawn) [3-(2,4-Dichloro-benzylsulfanyl)-2-(2,4-dichloro-benzylsulfanylmethyl)-4-hydroxy-5-oxo-2,5-dihydro-furan-2-carboxylic acid ethyl ester] | ≤ 20 | ≤ 30
4 | CCOC(=O)C1(CSc2ccc(F)cc2Cl)OC(=O)C(O)=C1Sc1ccc(F)cc1Cl (stereo not drawn) [3-(2-Chloro-4-fluoro-phenylsulfanyl)-2-(2-chloro-4-fluoro-phenylsulfanylmethyl)-4-hydroxy-5-oxo-2,5-dihydro-furan-2-carboxylic acid ethyl ester] | ≤ 20 | ≤ 30
5 | CCOC(=O)C1(CSCc2c(F)cccc2Cl)OC(=O)C(O)=C1SCc1c(F)cccc1Cl (stereo not drawn) [3-(2-Chloro-6-fluoro-benzylsulfanyl)-2-(2-chloro-6-fluoro-benzylsulfanylmethyl)-4-hydroxy-5-oxo-2,5-dihydro-furan-2-carboxylic acid ethyl ester] | ≤ 20 | ≤ 30
6 | CCOC(=O)C1(C(=O)OCC)OC(=O)C(O)=C1SCc1ccc(F)cc1 [3-(4-Fluoro-benzylsulfanyl)-4-hydroxy-5-oxo-5H-furan-2,2-dicarboxylic acid diethyl ester] | ≤ 20 | ≤ 30
7 | COC(=O)C1(CSc2nc3ccccc3s2)OC(=O)C(O)=C1Sc1nc2ccccc2o1 (stereo not drawn) [3-(Benzooxazol-2-ylsulfanyl)-2-(benzothiazol-2-ylsulfanylmethyl)-4-hydroxy-5-oxo-2,5-dihydro-furan-2-carboxylic acid methyl ester] | ≤ 20 | –
8 | CCOC(=O)C1(CSc2nc3ccccc3[se]2)OC(=O)C(O)=C1Sc1nc2ccccc2[se]1 (stereo not drawn) [3-(Benzoselenazol-2-ylsulfanyl)-2-(benzoselenazol-2-ylsulfanylmethyl)-4-hydroxy-5-oxo-2,5-dihydro-furan-2-carboxylic acid ethyl ester] | ≤ 20 | ≤ 30
9 | CCOC(=O)C1(CSc2nc3ccccc3s2)OC(=O)C(O)=C1Sc1nc2ccccc2s1 (stereo not drawn) [3-(Benzothiazol-2-ylsulfanyl)-2-(benzothiazol-2-ylsulfanylmethyl)-4-hydroxy-5-oxo-2,5-dihydro-furan-2-carboxylic acid ethyl ester] | ≤ 20 | ≤ 30
10 | CC(C)OC(=O)C1(CSc2nc3ccccc3s2)OC(=O)C(O)=C1Sc1nc2ccccc2s1 (stereo not drawn) [3-(Benzothiazol-2-ylsulfanyl)-2-(benzothiazol-2-ylsulfanylmethyl)-4-hydroxy-5-oxo-2,5-dihydro-furan-2-carboxylic acid isopropyl ester] | ≤ 20 | ≤ 30
11 | CCOC(=O)C1(C[S+]([O-])Cc2ccco2)OC(=O)C(O)=C1[S+]([O-])Cc1ccco1 (stereo not drawn) [3-(Furan-2-ylmethanesulfinyl)-2-(furan-2-ylmethanesulfinylmethyl)-4-hydroxy-5-oxo-2,5-dihydro-furan-2-carboxylic acid ethyl ester] | ≤ 20 | ≤ 30
12 | CCOC(=O)C1(CSCc2ccco2)OC(=O)C(O)=C1SCc1ccco1 (stereo not drawn) [3-(Furan-2-ylmethylsulfanyl)-2-(furan-2-ylmethylsulfanylmethyl)-4-hydroxy-5-oxo-2,5-dihydro-furan-2-carboxylic acid ethyl ester] | ≤ 20 | –
13 | CCOC(=O)C1(CSCc2ccco2)OC(=O)C(OC(=O)C(C)C)=C1SCc1ccco1 (stereo not drawn) [3-(Furan-2-ylmethylsulfanyl)-2-(furan-2-ylmethylsulfanylmethyl)-4-isobutyryloxy-5-oxo-2,5-dihydro-furan-2-carboxylic acid ethyl ester] | ≤ 20 | ≤ 30
14 | CCCCSCC1(C(=O)OCC)OC(=O)C(O)=C1SCCCC (stereo not drawn) [3-Butylsulfanyl-2-butylsulfanylmethyl-4-hydroxy-5-oxo-2,5-dihydro-furan-2-carboxylic acid ethyl ester] | ≤ 20 | –
15 | CCOC(=O)C1(CSCc2ccco2)OC(=O)C(OC(=O)C(C)(C)C)=C1SCc1ccco1 (stereo not drawn) [4-(2,2-Dimethyl-propionyloxy)-3-(furan-2-ylmethylsulfanyl)-2-(furan-2-ylmethylsulfanylmethyl)-5-oxo-2,5-dihydro-furan-2-carboxylic acid ethyl ester] | ≤ 20 | –
16 | O=C1OC(CO)(CSc2nc3ccccc3o2)C(Sc2nc3ccccc3o2)=C1O (stereo not drawn) [4-(Benzooxazol-2-ylsulfanyl)-5-(benzooxazol-2-ylsulfanylmethyl)-3-hydroxy-5-hydroxymethyl-5H-furan-2-one] | ≤ 20 | –
17 | CCOC(=O)C1(CSCc2ccc(OC)cc2)OC(=O)C(O)=C1SCc1ccc(OC)cc1 (stereo not drawn) [4-Hydroxy-3-(4-methoxy-benzylsulfanyl)-2-(4-methoxy-benzylsulfanylmethyl)-5-oxo-2,5-dihydro-furan-2-carboxylic acid ethyl ester] | ≤ 20 | –
18 | CCOC(=O)C1(CSc2nccc(C)n2)OC(=O)C(O)=C1Sc1nccc(C)n1 (stereo not drawn) [4-Hydroxy-3-(4-methyl-pyrimidin-2-ylsulfanyl)-2-(4-methyl-pyrimidin-2-ylsulfanylmethyl)-5-oxo-2,5-dihydro-furan-2-carboxylic acid ethyl ester] | ≤ 20 | –
19 | CCOC(=O)C1(CSc2ncccn2)OC(=O)C(O)=C1Sc1ncccn1 (stereo not drawn) [4-Hydroxy-5-oxo-3-(pyrimidin-2-ylsulfanyl)-2-(pyrimidin-2-ylsulfanylmethyl)-2,5-dihydro-furan-2-carboxylic acid ethyl ester] | ≤ 20 | –
